Test results: the NIST ThermoML archive (doi:10.1021/acs.jced.7b00466)
Where “and” joins values, the source holds several entries; their conditions need not be identical. Equal entries are not always repeated.

Assay: an = ratio of the nth substance listed
Conditions: for viscosity / speed of sound / mass density: 102 kPa, Liquid; for viscosity: Concentric cylinders viscometry; for speed of sound: Frequency=3 MHz, Sing-around technique in a fixed-path interferometer; for mass density: Vibrating tube method; for surface tension liquid-gas: 294.5 K, Pendant drop shape

CCCCC1CCCCC1 [butylcyclohexane] + CCCCCCCCCCCC
Conditions	mass density	speed of sound	viscosity
293.15 K, a2 = 0.3332	783.9 kg/m3	1317.5 m/s and 1317.3 m/s	1.34 mPa·s
293.15 K, a2 = 1	770.6 kg/m3	1309 m/s and 1308.8 m/s	1.38 mPa·s
293.15 K, a2 = 2.995	759 kg/m3	1302.4 m/s	1.44 mPa·s
293.15 K, a2 = 3.001	759 kg/m3	1302.6 m/s	1.42 mPa·s
303.15 K, a2 = 0.3332	776.5 kg/m3	1278.1 m/s and 1278.4 m/s	1.13 mPa·s
303.15 K, a2 = 1	763.3 kg/m3	1270.4 m/s and 1270.1 m/s	1.17 mPa·s
303.15 K, a2 = 2.995	751.7 kg/m3	1264 m/s	1.22 mPa·s
303.15 K, a2 = 3.001	751.7 kg/m3	1264.3 m/s	1.2 mPa·s
313.15 K, a2 = 0.3332	769.1 kg/m3	1239.7 m/s and 1239.9 m/s	0.972 mPa·s and 0.974 mPa·s
313.15 K, a2 = 1	755.9 kg/m3	1232.3 m/s and 1232 m/s	1.01 mPa·s and 1 mPa·s
313.15 K, a2 = 2.995	744.4 kg/m3	1226.2 m/s	1.04 mPa·s
313.15 K, a2 = 3.001	744.4 kg/m3	1226.5 m/s	1.02 mPa·s
323.15 K, a2 = 0.3332	761.6 kg/m3	1201.8 m/s and 1202 m/s	0.845 mPa·s and 0.846 mPa·s
323.15 K, a2 = 1	748.5 kg/m3	1194.8 m/s and 1194.6 m/s	0.88 mPa·s and 0.865 mPa·s
323.15 K, a2 = 2.995	737.1 kg/m3	1189 m/s	0.896 mPa·s
323.15 K, a2 = 3.001	737.1 kg/m3	1189.3 m/s	0.883 mPa·s
333.15 K, a2 = 0.3332	754.1 kg/m3	1164.8 m/s and 1164.7 m/s	0.743 mPa·s and 0.741 mPa·s
333.15 K, a2 = 1	741.1 kg/m3	1158.1 m/s and 1157.9 m/s	0.774 mPa·s and 0.757 mPa·s
333.15 K, a2 = 2.995	729.7 kg/m3	1152.5 m/s	0.788 mPa·s
333.15 K, a2 = 3.001	729.7 kg/m3	1152.9 m/s	0.77 mPa·s
343.15 K, a2 = 0.3332	746.5 kg/m3	–	0.656 mPa·s
343.15 K, a2 = 1	733.6 kg/m3 and 733.7 kg/m3	–	0.686 mPa·s and 0.668 mPa·s
343.15 K, a2 = 2.995	722.5 kg/m3	–	0.699 mPa·s
343.15 K, a2 = 3.001	722.2 kg/m3	–	0.678 mPa·s

Conditions	surface tension liquid-gas [mN/m]
a2 = 0.3332	26.1
a2 = 0.3335	26.1
a2 = 0.9998	25.8
a2 = 1	25.6
a2 = 2.997	25.4
a2 = 3.001	25.3

CCCCC1CCCCC1 [butylcyclohexane] + CCCCCCCCCCCCCCCC
Conditions	mass density [kg/m3]	speed of sound [m/s]	viscosity [mPa·s]
293.15 K, a2 = 0.25	791.29	1334.4	1.68
293.15 K, a2 = 0.3333	789.5	1335.5	1.78
293.15 K, a2 = 0.3335	789.61	1335.2	1.78
293.15 K, a2 = 0.6666	785.19	–	2.08
293.15 K, a2 = 0.6667	–	1339.5	–
293.15 K, a2 = 0.9992	782.68	1342.9	2.29
293.15 K, a2 = 0.9997	782.68	1342.9	2.29
293.15 K, a2 = 1.5	780.35	1345.6	2.5
293.15 K, a2 = 2.997	777.44	1349.7	2.84
293.15 K, a2 = 3.001	777.44	1350	2.84
293.15 K, a2 = 3.998	776.54	1350.8	2.96
303.15 K, a2 = 0.25	784.02	1295.9	1.4
303.15 K, a2 = 0.3333	782.27	1297.1	1.5
303.15 K, a2 = 0.3335	782.37	1296.8	1.49
303.15 K, a2 = 0.6666	778.07	–	1.71
303.15 K, a2 = 0.6667	–	1301.7	–
303.15 K, a2 = 0.9992	775.6	1305.2	1.87
303.15 K, a2 = 0.9997	775.6	1305.2	1.87
303.15 K, a2 = 1.5	773.33	1308.2	2.04
303.15 K, a2 = 2.997	770.54	1312.4	2.29
303.15 K, a2 = 3.001	770.45	1312.7	2.29
303.15 K, a2 = 3.998	769.57	1313.6	2.37
313.15 K, a2 = 0.25	776.71	1257.8	1.19
313.15 K, a2 = 0.3333	775.01	1259.3	1.26
313.15 K, a2 = 0.3335	775.12	1259.1	1.26
313.15 K, a2 = 0.6666	770.92	–	1.44
313.15 K, a2 = 0.6667	–	1264.4	–
313.15 K, a2 = 0.9992	768.51	1268.2	1.56
313.15 K, a2 = 0.9997	768.51	1268.2	1.56
313.15 K, a2 = 1.5	766.29	1271.3	1.69
313.15 K, a2 = 2.997	763.47	1275.9	1.88
313.15 K, a2 = 3.001	763.47	1276	1.88
313.15 K, a2 = 3.998	762.61	1277	1.95
323.15 K, a2 = 0.25	769.38	1220.2	1.03
323.15 K, a2 = 0.3333	767.73	1222.1	1.08
323.15 K, a2 = 0.3335	767.83	1222	1.08
323.15 K, a2 = 0.6667	763.75	1227.5	1.23
323.15 K, a2 = 0.9992	761.41	1231.8	1.33
323.15 K, a2 = 0.9997	761.41	1231.8	1.33
323.15 K, a2 = 1.5	759.24	1234.9	1.42
323.15 K, a2 = 2.997	756.48	1239.9	1.58
323.15 K, a2 = 3.001	756.48	1240.1	1.58
323.15 K, a2 = 3.998	755.63	1240.9	1.62
333.15 K, a2 = 0.25	762.02	1183.2	0.898
333.15 K, a2 = 0.3333	760.42	1185.7	0.942
333.15 K, a2 = 0.3335	760.52	1185.6	0.942
333.15 K, a2 = 0.6667	756.56	1191.2	1.06
333.15 K, a2 = 0.9992	754.28	1196.2	1.14
333.15 K, a2 = 0.9997	754.28	1196.2	1.14
333.15 K, a2 = 1.5	752.17	1199.1	1.22
333.15 K, a2 = 2.997	749.48	1204.7	1.34
333.15 K, a2 = 3.001	749.49	1205	1.34
333.15 K, a2 = 3.998	748.65	1205.4	1.38
343.15 K, a2 = 0.25	754.6	–	0.789
343.15 K, a2 = 0.3333	753.1	–	0.827
343.15 K, a2 = 0.3335	753.2	–	0.821
343.15 K, a2 = 0.6667	749.4	–	0.926
343.15 K, a2 = 0.9992	747.2	–	0.991
343.15 K, a2 = 0.9997	747.2	–	0.991
343.15 K, a2 = 1.5	745.1	–	1.06
343.15 K, a2 = 2.997	742.5	–	1.16
343.15 K, a2 = 3.001	742.5	–	1.16
343.15 K, a2 = 3.998	741.4	–	1.19

Conditions	surface tension liquid-gas [mN/m]
a2 = 0.25	26.6
a2 = 0.3333	26.7
a2 = 0.3335	26.9
a2 = 0.6667	26.9
a2 = 0.9992	26.9
a2 = 0.9997	26.9
a2 = 1.5	26.9
a2 = 2.997	27.1
a2 = 3.001	27
a2 = 3.998	27
